The numbers were not newly measured in patent US11252971B2, “Antimicrobial packaging films” (Cryovac, LLC, priority 2017, dated 2022), which cites them from elsewhere.

The conditions of this data set: GRAS by the U.S. Food and Drug Administration.

For `CCCCCCCCCCCC(=O)N[C@@H](CCCNC(=N)N)C(=O)OCC.Cl` [LAE, ethyl-N^α-dodecanoyl-L-arginate.HCl], the Toxicity entry is “nontoxic”.
